Test results: ChEMBL document CHEMBL3217732, “Inhibition of Pseudomonas aeruginosa biofilms with a glycopeptide dendrimer containing D-amino acids” (Medchemcomm, 2011)
Activity calls are given as the source filed them. The calls are words filed in the database; no cut-off is given here. Where a SMILES comes first, the peptide text is derived from it. Bridges are numbered along the chain shown (N, C = ends). Roman numbers before positions name the chains, in order. Side-chain parts run from the residue outwards. The star is where a group is joined. Acetyl(C-α-L-Fucp) = C[C@@H]1O[C@@H](CC(=O)*)[C@@H](O)[C@H](O)[C@@H]1O

Experiments:
[1] = Binding affinity to Pseudomonas aeruginosa lectin LecB after 1 hr by enzyme-linked lectin assay
Pseudomonas aeruginosa [2] = assay: Ratio of L-fucose IC50 to compound IC50 for Pseudomonas aeruginosa lectin LecB after 1 hr by enzyme-linked lectin assay
[3] = Stability of the compound in 100 mM of tris buffer at pH 7.5 after 30 mins in presence of trypsin; assay type: ADME; conditions: isolated protein, pH 7.5, 0.5 h
[4] = Stability of the compound in 100 mM of tris buffer at pH 7.5 after 30 mins in presence of chymotrypsin; assay type: ADME; conditions: isolated protein, pH 7.5, 0.5 h
[5] = Half life in human serum; assay type: ADME, cell-free
Pseudomonas aeruginosa [6] = assay: Inhibition of Pseudomonas aeruginosa clinical isolate A014 biofilm formation at 0.05 mM after 24 hrs using acridine orange staining by steel coupon assay; assay type: functional, organism-based
Pseudomonas aeruginosa [7] = assay: Ratio of FD2 IC50 to compound IC50 for Pseudomonas aeruginosa lectin LecB after 1 hr by enzyme-linked lectin assay
Pseudomonas aeruginosa [8] = assay: Inhibition of wild type Pseudomonas aeruginosa PAO1 biofilm formation at 0.05 mM after 24 hrs using acridine orange staining by steel coupon assay; assay type: functional, organism-based
Pseudomonas aeruginosa [9] = assay: Inhibition of Pseudomonas aeruginosa clinical isolate A021 biofilm formation at 0.05 mM after 24 hrs using acridine orange staining by steel coupon assay; assay type: functional, organism-based
Pseudomonas aeruginosa [10] = assay: Inhibition of Pseudomonas aeruginosa clinical isolate A035 biofilm formation at 0.05 mM after 24 hrs using acridine orange staining by steel coupon assay; assay type: functional, organism-based
[11] = Stability of the compound in 100 mM of tris buffer at pH 7.5 after 48 hrs in presence of trypsin; assay type: ADME; conditions: isolated protein, pH 7.5, 48 h
[12] = Stability of the compound in 100 mM of tris buffer at pH 7.5 after 48 hrs in presence of chymotrypsin; assay type: ADME; conditions: isolated protein, pH 7.5, 48 h
Serum = assay: Metabolic stability in human serum; assay type: ADME, cell-free

SMILES	IC50 [1] [nM]	Ratio IC50 (Pseudomonas aeruginosa [2])	Stability [3]	Stability [4]	half-life [5] [h]	inhibition (Pseudomonas aeruginosa [6])	Ratio IC50 (Pseudomonas aeruginosa [7])	inhibition (Pseudomonas aeruginosa [8])	inhibition (Pseudomonas aeruginosa [9])	inhibition (Pseudomonas aeruginosa [10])	Stability [11]	Stability [12]	Stability (Serum)
C[C@H](O)[C@@H](O)[C@@H](O)[C@H](O)C=O [L-FUCOSE]	11000	1											
CC[C@H](C)[C@H](NC(=O)[C@H](Cc1cnc[nH]1)NC(=O)[C@H](CCCCNC(=O)[C@@H](NC(=O)[C@H](CCCCN)NC(=O)[C@H](Cc1ccccc1)NC(=O)[C@H](CCCCNC(=O)[C@H](CC(C)C)NC(=O)[C@@H]1CCCN1C(=O)[C@H](CCCCN)NC(=O)C[C@@H]1O[C@@H](C)[C@@H](O)[C@@H](O)[C@@H]1O)NC(=O)[C@H](CC(C)C)NC(=O)[C@@H]1CCCN1C(=O)[C@H](CCCCN)NC(=O)C[C@@H]1O[C@@H](C)[C@@H](O)[C@@H](O)[C@@H]1O)[C@@H](C)CC)NC(=O)[C@@H](NC(=O)[C@H](CCCCN)NC(=O)[C@H](Cc1ccccc1)NC(=O)[C@H](CCCCNC(=O)[C@H](CC(C)C)NC(=O)[C@@H]1CCCN1C(=O)[C@H](CCCCN)NC(=O)C[C@@H]1O[C@@H](C)[C@@H](O)[C@@H](O)[C@@H]1O)NC(=O)[C@H](CC(C)C)NC(=O)[C@@H]1CCCN1C(=O)[C@H](CCCCN)NC(=O)C[C@@H]1O[C@@H](C)[C@@H](O)[C@@H](O)[C@@H]1O)[C@@H](C)CC)C(N)=O (I: {Acetyl(C-α-L-Fucp)}-KPLK([Leu-Pro-Lys-Acetyl(C-α-L-Fucp)])FKIKHI-NH2 / II: {Acetyl(C-α-L-Fucp)}-KPLK([Leu-Pro-Lys-Acetyl(C-α-L-Fucp)])FKI; amide I:8-II:C)	140	78.6	Unstable	Unstable	60								
CC(C)C[C@@H](NC(=O)[C@@H](Cc1cnc[nH]1)NC(=O)[C@@H](CCCCNC(=O)[C@@H](CC(C)C)NC(=O)[C@@H](CCCCN)NC(=O)[C@@H](Cc1ccccc1)NC(=O)[C@@H](CCCCNC(=O)[C@@H](CC(C)C)NC(=O)[C@H]1CCCN1C(=O)[C@@H](CCCCN)NC(=O)C[C@@H]1O[C@@H](C)[C@@H](O)[C@@H](O)[C@@H]1O)NC(=O)[C@@H](CC(C)C)NC(=O)[C@H]1CCCN1C(=O)[C@@H](CCCCN)NC(=O)C[C@@H]1O[C@@H](C)[C@@H](O)[C@@H](O)[C@@H]1O)NC(=O)[C@@H](CC(C)C)NC(=O)[C@@H](CCCCN)NC(=O)[C@@H](Cc1ccccc1)NC(=O)[C@@H](CCCCNC(=O)[C@@H](CC(C)C)NC(=O)[C@H]1CCCN1C(=O)[C@@H](CCCCN)NC(=O)C[C@@H]1O[C@@H](C)[C@@H](O)[C@@H](O)[C@@H]1O)NC(=O)[C@@H](CC(C)C)NC(=O)[C@H]1CCCN1C(=O)[C@@H](CCCCN)NC(=O)C[C@@H]1O[C@@H](C)[C@@H](O)[C@@H](O)[C@@H]1O)C(N)=O	660	16.7				Active	4.7	Active	Active	Active	Stable	Stable	Stable
CC(C)C[C@H](NC(=O)[C@H](Cc1cnc[nH]1)NC(=O)[C@H](CCCCNC(=O)[C@H](CC(C)C)NC(=O)[C@H](CCCCN)NC(=O)[C@H](Cc1ccccc1)NC(=O)[C@H](CCCCNC(=O)[C@H](CC(C)C)NC(=O)[C@@H]1CCCN1C(=O)[C@H](CCCCN)NC(=O)C[C@@H]1O[C@@H](C)[C@@H](O)[C@@H](O)[C@@H]1O)NC(=O)[C@H](CC(C)C)NC(=O)[C@@H]1CCCN1C(=O)[C@H](CCCCN)NC(=O)C[C@@H]1O[C@@H](C)[C@@H](O)[C@@H](O)[C@@H]1O)NC(=O)[C@H](CC(C)C)NC(=O)[C@H](CCCCN)NC(=O)[C@H](Cc1ccccc1)NC(=O)[C@H](CCCCNC(=O)[C@H](CC(C)C)NC(=O)[C@@H]1CCCN1C(=O)[C@H](CCCCN)NC(=O)C[C@@H]1O[C@@H](C)[C@@H](O)[C@@H](O)[C@@H]1O)NC(=O)[C@H](CC(C)C)NC(=O)[C@@H]1CCCN1C(=O)[C@H](CCCCN)NC(=O)C[C@@H]1O[C@@H](C)[C@@H](O)[C@@H](O)[C@@H]1O)C(N)=O	150	73.3											
